# According to paper PMC5768343, “A natural inhibitor of kidney-type glutaminase: a withanolide from Physalis pubescens with potent anti-tumor activity” (Oncotarget, 2017):
# Target: T1, catalytic domain of human KGA (cKGA) (Homo sapiens, UniProt O94925)
# T1 sequence (O94925 221-553): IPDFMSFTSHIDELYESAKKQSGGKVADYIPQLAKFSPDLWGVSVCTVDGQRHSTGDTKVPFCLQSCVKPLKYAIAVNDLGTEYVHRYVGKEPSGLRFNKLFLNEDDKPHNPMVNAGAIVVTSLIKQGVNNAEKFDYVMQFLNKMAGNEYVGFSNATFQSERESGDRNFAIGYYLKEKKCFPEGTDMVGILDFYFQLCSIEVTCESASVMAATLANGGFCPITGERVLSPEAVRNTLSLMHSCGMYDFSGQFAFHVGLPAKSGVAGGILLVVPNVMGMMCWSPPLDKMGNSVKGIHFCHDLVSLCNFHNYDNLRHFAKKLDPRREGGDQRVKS
# Experiment: In vitro KGA enzyme inhibition assay (GDH-coupled, NADH absorbance 340 nm)
# Assay type: biochemical
# Procedure: To validate the finding of the virtual ligand screening, the catalytic domain of human KGA (cKGA) was expressed by recombinant technique. […] Enzyme kinetics has been measured to explore the mode of inhibition.
# Specific details were referenced to our previous work. Briefly, The catalytical domain of human KGA (cKGA) encoding amino acids 221–553 was cloned into pET26b vector with C-terminal His tag. The cKGA was then expressed in E.coli BL21 (DE3)-RIL-Condon plus. Cultures were grown in LB media contain 35 mg/L kanamycin at 37°C to OD value in 0.6–0.8, then induced at 16°C with 0.4 mM IPTG for 16 h. Cultures were harvested by centrifugation at 3500 g for 8 minutes. Cell pellets were sonicated in a buffer containing 50 mM Hepes (pH 7.5), 500 mM NaCl, 5mM imidazole, […], 1 mM DTT, 0.1% Triton X-100, and final 1 mM PMSF (Sigma-Aldrich USA). The cKGA were purified by affinity chromatography by Ni-NTA agarose, and further purified by size exclusion chromatography (Superdex 200, GE-health care, USA). The purified cKGA was stored in buffer containing 20 mM Hepes (pH 7.5), 200 mM NaCl, 10% glycerol and 3 mM DTT.
# The KGA profiling assays were to evaluate the compound-dependent inhibition of KGA in vitro catalytic assay. Specific details were referenced to our previous work. Briefly, the KGA catalyzed the glutamine into glutamate plus ammonium, and then glutamate plus NAD converted to α-ketoglutarate and NADH by the catalysis of GDH. The elevated absorbance at 340 nm with the form of NADH was recorded using a microplate reader. The enzymatic activity was measured in 100 μL system. Mixed buffer containing 0.15 M K2HPO4, 50 mM Tris-Acetate pH 8.6, 0.1 mg/mL bovine serum albumin (BSA), 0.25 mM EDTA, 1 mM DTT, 4 mM NAD were prepared. Then, 10 mM glutamine, 1 unit of glutamate dehydrogenase (GDH) and inhibitor were added in the mix. Final concentration of 1 μM cKGA was added to initiate the reaction. Generation of NADH was monitored by 340 nm absorbance every minute for 20 minutes at 37°C. The IC50 values were calculated by fitted regression equation using the-log plot (GraphPad Prism). Each value was on behalf of the means ± SD of three independent tests, each with three replicates.
structure (smiles),measurement,setting,value
CO[C@H]1O[C@@H]([C@@H](C)[C@H]2C[C@H](OC(C)=O)[C@H]3[C@@H]4C[C@H]5O[C@]56[C@@H](O)C=CC(=O)[C@]6(C)[C@H]4CC[C@@]32C)C[C@]2(C)O[C@]12C [physapubescin K],IC50,"1 μM cKGA, 10 mM glutamine, 37°C",520 ± 60 nM
same,catalytic rate of cKGA,"5 μM compound, after substrate concentration was increased from 10 mM to 40 mM (0 at 10 mM)",0.02 ∆OD/min
same,inhibition of the activity of KGA,"5 μM compound, substrate concentration 10 mM",completely inhibit
same,mode of inhibition,"higher concentration, increases in Km for glutamine",competitive
same,mode of inhibition,"low concentration, decrease in Vmax, little effect on Km for glutamine",non-competitive
same,reversibility of inhibition,"saturated inhibition assay, 5 μM",reversible
